Several values for one entry are separate records, joined by “and”; a condition that tells them apart may be missing. Identical values can stand only once.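 A five-concentration, 48-hour dose response in 96-well plates underlies each endpoint, interpolated linearly between surrounding concentrations. GI50: concentration for 50% inhibition of growth. TGI: concentration producing complete growth inhibition.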
Experiments:
Assay in all cases: NCI anticancer screen, dose series, 48 h
SNB-78 CNS = tested on: SNB-78 CNS
XF 498 CNS = tested on: XF 498 CNS
KM20L2 colon = tested on: KM20L2 colon
M19-MEL melanoma = tested on: M19-MEL melanoma
T-47D breast = tested on: T-47D breast
PC-3 prostate = tested on: PC-3 prostate
HS 578T breast = tested on: HS 578T breast
MDA-N = tested on: MDA-N

`CCOc1ccc(NC(=O)/C(=C/c2ccccc2)C(C)=O)cc1` gave a TGI (SNB-78 CNS) of 38.8 µM, a TGI (XF 498 CNS) of 28.9 µM and a TGI (KM20L2 colon) of 32.5 µM. It also gave a TGI (M19-MEL melanoma) of 27.7 µM.

`c1ccc(COc2ccc(Nc3ncnc4ccc(-c5ccco5)cc34)cc2)cc1` showed a GI50 (T-47D breast) of 4.09 µM, a TGI (T-47D breast) of 16.8 µM and a GI50 (PC-3 prostate) of 8.47 µM. The TGI (PC-3 prostate) was > 23.5 µM, the GI50 (HS 578T breast) was 7.71 µM and the TGI (HS 578T breast) was > 23.5 µM.

With `COc1ccc(C(=O)Nc2ccccc2C#N)cc1` the TGI (SNB-78 CNS) was > 100 µM, the TGI (XF 498 CNS) was > 100 µM and the TGI (KM20L2 colon) was > 100 µM. The TGI (M19-MEL melanoma) was > 100 µM.

With `Fc1cccc(C=NC23CC4CC(CC(C4)C2)C3)c1` the TGI (SNB-78 CNS) was > 100 µM, the TGI (XF 498 CNS) was > 100 µM and the TGI (KM20L2 colon) was > 100 µM. The TGI (M19-MEL melanoma) was > 100 µM.

For `Cc1nc(N=C(N)N)nc2ccc3ccccc3c12`, the GI50 (T-47D breast) was 1.12 µM, the TGI (T-47D breast) was 7.24 µM and the GI50 (PC-3 prostate) was 1.26 µM. The TGI (PC-3 prostate) was 4.1 µM, the GI50 (HS 578T breast) was 0.606 µM and the TGI (HS 578T breast) was 3.16 µM.

For `CC(=O)[CH-]C(=O)c1ccccc1.CC(=O)[CH-]C(=O)c1ccccc1.[O-]Cc1cccs1.[O-]Cc1cccs1.[Ti+4]`, the GI50 (KM20L2 colon) was 19.8 µM, the TGI (KM20L2 colon) was > 100 µM and the GI50 (M19-MEL melanoma) was 82 µM. For the same molecule, the TGI (M19-MEL melanoma) was > 100 µM.

In the case of `COC12c3ccccc3-c3ccccc3C1[C@@H](C(=O)O)[C@H]2C(=O)O` (some centres undefined), the TGI (MDA-N) is reported as > 10 µM, the TGI (T-47D breast) is reported as > 10 µM and the TGI (PC-3 prostate) is reported as > 10 µM. The TGI (HS 578T breast) was > 10 µM.

Work on `Cn1cc(-c2ccc3c(c2)ncn3-c2ccc(CC(=O)Nc3cc(C(C)(C)C)on3)cc2)cn1` yielded a GI50 (T-47D breast) of 0.683 µM, a TGI (T-47D breast) of 25.5 µM and a GI50 (PC-3 prostate) of 2.78 µM. The TGI (PC-3 prostate) was > 74.7 µM, the GI50 (HS 578T breast) was 0.187 µM and the TGI (HS 578T breast) was 1.46 µM.

Molecule `NCCCNCCCNc1nc2ccccc2c2[nH]c3ccccc3c12` has a GI50 (T-47D breast) of 0.334 µM, a TGI (T-47D breast) of 2.69 µM and a GI50 (PC-3 prostate) of 0.481 µM. The TGI (PC-3 prostate) was 2.14 µM, the GI50 (HS 578T breast) was 0.132 µM and the TGI (HS 578T breast) was 1.54 µM.

`COc1ccccc1NS(=O)(=O)c1cc(C(C)(C)C)ccc1OCCOc1ccc(C(C)(C)C)cc1S(=O)(=O)Nc1ccccc1OC` was tested, and the TGI (SNB-78 CNS) was > 100 µM and the TGI (M19-MEL melanoma) was > 100 µM.

In the case of `CCN(CC)c1ccc(/C=C/C2=[N+](C)c3ccccc3C2(C)C)cc1`, the GI50 (T-47D breast) is reported as 0.205 µM, the TGI (T-47D breast) is reported as 13.8 µM and the GI50 (PC-3 prostate) is reported as 0.167 µM. The TGI (PC-3 prostate) was 31.7 µM, the GI50 (HS 578T breast) was 0.152 µM and the TGI (HS 578T breast) was 20.9 µM.

For `S=c1nc(/C=C/c2ccc(Cl)c(Cl)c2)[nH][nH]1`, the GI50 (T-47D breast) was 77.1 µM, the TGI (T-47D breast) was > 100 µM and the TGI (XF 498 CNS) was 95.5 µM. For the same molecule, the GI50 (PC-3 prostate) was 53.4 µM, the TGI (PC-3 prostate) was > 100 µM and the TGI (KM20L2 colon) was > 100 µM. For the same molecule, the GI50 (HS 578T breast) was > 100 µM and the TGI (HS 578T breast) was > 100 µM.

Work on `CC1(C)CCC(CN2CCN(c3ccc(C(=O)NS(=O)(=O)c4ccc(NCC5CCOCC5)c([N+](=O)[O-])c4)c(Oc4cnc5[nH]ccc5c4)c3)CC2)=C(c2ccc(Cl)cc2)C1` yielded a GI50 (T-47D breast) of 3.25 µM, a TGI (T-47D breast) of 18.9 µM and a GI50 (PC-3 prostate) of 1.93 µM. For the same molecule, the TGI (PC-3 prostate) was 5.54 µM, the GI50 (HS 578T breast) was 2.94 µM and the TGI (HS 578T breast) was 12.2 µM.

`COc1ccc2c(c1)C(=O)/C(=C/c1ccc(OCC(=O)c3ccc(Cl)cc3)cc1)O2` was tested, and the GI50 (T-47D breast) was 10.5 µM, the TGI (T-47D breast) was 35.7 µM and the GI50 (PC-3 prostate) was 14.7 µM. It also gave a TGI (PC-3 prostate) of 69.1 µM, a GI50 (HS 578T breast) of 22.1 µM and a TGI (HS 578T breast) of 84.6 µM.

In the case of `COc1cc2c(c(Br)c1N)-c1cc(Br)c(N)cc1C2=O`, the GI50 (T-47D breast) is reported as 0.307 µM, the TGI (T-47D breast) is reported as > 100 µM and the GI50 (PC-3 prostate) is reported as > 100 µM. The TGI (PC-3 prostate) was > 100 µM, the GI50 (HS 578T breast) was 3.02 µM and the TGI (HS 578T breast) was > 100 µM.

For `CCOC(=O)c1c(-c2ccccc2)[nH]c2ccccc2c1=O`, the TGI (MDA-N) was > 100 µM, the TGI (T-47D breast) was > 100 µM and the TGI (PC-3 prostate) was > 100 µM. The TGI (HS 578T breast) was > 100 µM.

With `CCN1CCC(O)(c2ccccc2)C(C(=O)c2ccccc2)C1` (centres undefined) the TGI (SNB-78 CNS) was 54.1 µM, the TGI (XF 498 CNS) was 29.9 µM and the TGI (KM20L2 colon) was > 60.7 µM. The TGI (M19-MEL melanoma) was > 63.1 µM.

In the case of `O=C(O)Cc1ccccc1`, the GI50 (MDA-N) is reported as > 1000 µM, the TGI (MDA-N) is reported as > 2000 µM and the GI50 (T-47D breast) is reported as > 1000 µM. For the same molecule, the TGI (T-47D breast) was > 2000 µM, the GI50 (PC-3 prostate) was > 1000 µM and the TGI (PC-3 prostate) was > 2000 µM. For the same molecule, the GI50 (HS 578T breast) was > 1000 µM and the TGI (HS 578T breast) was > 1000 µM and 1780 µM.

`O=c1[nH]cnc2c1nnn2C1C=C(CO)C(O)C1O` (centres undefined) was tested, and the TGI (SNB-78 CNS) was > 100 µM, the TGI (XF 498 CNS) was > 100 µM and the TGI (KM20L2 colon) was > 100 µM. The TGI (M19-MEL melanoma) was > 100 µM.

For `Cn1cccc1C1CC(=O)N(CCC[Se]C#N)C1=O` (centres undefined), the GI50 (T-47D breast) was 2.78 µM, the TGI (T-47D breast) was 12.8 µM and the GI50 (PC-3 prostate) was 2.19 µM. It also gave a TGI (PC-3 prostate) of 5.63 µM, a GI50 (HS 578T breast) of 2.44 µM and a TGI (HS 578T breast) of 7.33 µM.

`O=C(Nc1ccc(Cl)cc1)C(=O)C1=C(O)c2ccccc2OC1` was tested, and the TGI (MDA-N) was > 100 µM, the TGI (T-47D breast) was > 100 µM and the TGI (PC-3 prostate) was > 100 µM. For the same molecule, the TGI (HS 578T breast) was > 100 µM.

Molecule `CC[C@]12C=CCN3CC[C@]4(C(=C(C(=O)OC)C1)Nc1ccccc14)[C@@H]32` has a GI50 (T-47D breast) of 2.82 µM, a TGI (T-47D breast) of 15.9 µM and a GI50 (PC-3 prostate) of 5.36 µM. For the same molecule, the TGI (PC-3 prostate) was 22.8 µM, the GI50 (HS 578T breast) was 2.99 µM and the TGI (HS 578T breast) was 17.2 µM.

`Cc1cc2c(C)nn(Cc3ccc(Cl)cc3Cl)c2c(C#N)c1C` was tested, and the TGI (SNB-78 CNS) was > 100 µM, the TGI (XF 498 CNS) was > 100 µM and the TGI (KM20L2 colon) was > 100 µM. For the same molecule, the TGI (M19-MEL melanoma) was > 100 µM.

In the case of `COc1cc(-c2[nH]ncc2CCCC(=O)Nc2ccccc2[N+](=O)[O-])ccc1O`, the TGI (XF 498 CNS) is reported as > 100 µM.

With `COC(=O)Oc1nn(C(=O)OC)c(=O)c2ccccc12` (tested in a mixture with another compound) the TGI (MDA-N) was > 100 µM, the TGI (T-47D breast) was > 100 µM and the TGI (PC-3 prostate) was > 100 µM. For the same molecule, the TGI (HS 578T breast) was > 100 µM.

In the case of `CCOC(=O)C12CN(C34CC5CC(CC(C5)C3)C4)CC(C(=O)OCC)(C1=O)C(c1ccccc1)OC2c1ccccc1` (centres undefined), the TGI (SNB-78 CNS) is reported as > 100 µM, the TGI (XF 498 CNS) is reported as > 100 µM and the TGI (KM20L2 colon) is reported as > 100 µM. For the same molecule, the TGI (M19-MEL melanoma) was > 100 µM.

With `COC(=O)C1(C)CCc2c(ccc3ccccc23)C1=O` (centres undefined) the TGI (MDA-N) was 76.5 µM, the TGI (T-47D breast) was 72.8 µM and the TGI (PC-3 prostate) was > 100 µM. For the same molecule, the TGI (HS 578T breast) was > 100 µM.

With `CCCCCNC(=O)C1C(=O)N(CCCCC)C(=O)/C1=N\N` (centres undefined) the TGI (SNB-78 CNS) was 60 µM, the TGI (KM20L2 colon) was > 100 µM and the TGI (M19-MEL melanoma) was > 100 µM.

In the case of `O=C(/C=C/c1cccnc1)/C=C/c1cccnc1`, the GI50 (T-47D breast) is reported as 2.14 µM, the TGI (T-47D breast) is reported as 6.87 µM and the GI50 (PC-3 prostate) is reported as 0.558 µM. The TGI (PC-3 prostate) was 3.01 µM, the GI50 (HS 578T breast) was 3.44 µM and the TGI (HS 578T breast) was 17.3 µM.

With `COc1ccc2c(c1)CC[C@@H]1C2CC[C@]2(C)C(=O)N(C)C(=O)CC12` (some centres undefined) the TGI (MDA-N) was > 100 µM, the TGI (T-47D breast) was > 100 µM and the TGI (PC-3 prostate) was > 100 µM. The TGI (HS 578T breast) was > 100 µM.

For `NC(=NCc1ccccc1)N/N=C\c1ccnc2ccccc12`, the TGI (MDA-N) was 26.6 µM, the TGI (T-47D breast) was 5.87 µM and the TGI (PC-3 prostate) was 35.9 µM. The TGI (HS 578T breast) was 49.4 µM.

`COc1cc(-c2cn(-c3ccc(Cl)cc3)c(=O)n2-c2ccccc2)cc(OC)c1OC` was tested, and the GI50 (T-47D breast) was 21.7 µM, the TGI (T-47D breast) was > 100 µM and the GI50 (PC-3 prostate) was 69.9 µM. For the same molecule, the TGI (PC-3 prostate) was > 100 µM, the GI50 (HS 578T breast) was > 50.5 µM and the TGI (HS 578T breast) was 97.1 µM.
